Source: US20220095609A1, “FREEZING OF BIOLOGICAL MATERIAL” (SCI-GROUP AS, priority 2018, published 2022)

Legend:
cells = test: MTS bioassay, viability after freezing and thawing; assay type: cell-based
Description: […] the presence of a combined magnetic (0.2-0.3 T)-pulsing electric fields (20V (220V/m)-20kHZ), in the presence or absence of DMSO (0-5%) measured as the fraction of cells retaining their full proliferative capacity after freezing, monitored with a rapid bioassay-MTS-as an alternative to conventional plating efficiency testing.
The experiment included the standard method used by most researchers, i.e. freezing with 5% DMSO in a “Nalgene Mr Frosty” apparatus (Merck KgaA, Germany), operated with a 15 minutes phase-transition time corresponding to the state of the art freezing rate of 1 degree per minute.
(§1) The cells were grown to 70% confluence in 162 cm^2 flasks as monolayer cultures in Ham's F12 medium supplemented with 10% fetal calf serum (FBS). The cells were kept in continuous exponential growth by re-culturing twice per week. Harvest for re-culturing or for freezing was done by removing the growth medium, rinsing two times in 1.5 ml trypsin EDTA solution (0.05% and 0.02% respectively), and incubating cultures for 5 min at 37° C. in the residual trypsin solution. The trypsinization was stopped by adding Ham's F12 medium with FBS.
(§2) Cells were resuspended and counted using Countess Automated Cell counter with Trypan Blue Stain (0.4%) to estimate the cell viability.
(§3) The cell suspension was transferred to 15 ml tube and centrifuged (200xg, 5 min, 4° C.). The supernatant was removed and the cell pellets were resuspended in cold FBS to give a final concentration of 2×10^6 cells/ml. 0.5 ml of the cell suspension was transferred to 2 ml cryo-tube. Equal volume (0.5 ml) freezing medium with or without DMSO-medium was added to each cryotube to give a final 5% concentration of DMSO and 1×10^6 cells per ml in each tube.
After 15 days in liquid nitrogen samples were thawed and cells seeded for MTS assay as follows: • cells were transferred to 15 ml tubes containing 4 ml culture media (total volume of 4+1=5 ml) and centrifuged at 200×g, 10 min, 4° C. • cells were resuspended in 1 ml media with 1% FBS and further diluted 10 times to give a concentration of 1×10^5/ml based on the initial counting before freezing. • After dilution, 0.2 ml of cells from each freezing condition was seeded in 96 well plates and the plates were incubated at 37° C. until the next day. • After the overnight incubation, media was removed and 0.1 ml of a fresh 1% FBS media was added. 20 μl of MTS reagent was added. • Finally, OD490 values were read after 1-4 hours incubation. The number of viable cells/well were calculated based on a standard curve generated using ongoing cell cultures. The calculation was performed in GraphPad Prism 8, using four parameter nonlinear logistic regression and the curve fitting function.

[1] = tested on: T-47D breast cancer cells; test: Colony formation (plating efficiency) after freezing and thawing, T-47D; assay type: cell-based, human; conditions: Standard freezing with 5% DMSO (30 min -20° C., 45 min ~-80° C., liquid N2)
Description: (§4) The objective was to test the importance of the duration of ice-formation time (=time to remove latent heat during ice formation) of seed stocks of two established human cells lines: T-47D breast cancer cells and T98G glioblastoma cells, for viability after thawing. In addition to variation in ice-forming time two variables have been tested: • Cells frozen without DMSO or with 5% DMSO • Cells frozen within a mixed strong magnetic (0.2-0.3 T)-pulsing electric (20V (220V/m)-20kHZ) field (hereinafter termed “Strong MAG/PEF”), or just outside the Field Box in a weak magnetic (0,005-0,008T)-pulsing electric (7-16V (75-185V/m)-20 kHz) (hereinafter “Weak MAG/PEF) field.
(§5) The cells of both types were grown as monolayer cultures in RPMI 1640 medium (Gibco, Rockwill, Md., USA) supplemented with 10% fetal calf serum (Gibco), 2 mM L-glutamine, 200 units/I insulin and 1% penicillin/streptomycin (Gibco). […]
(§6) For each cell type separate preparation of samples for freezing was performed by standard trypsin treatment of several flasks and pooling of the cells after removal of the trypsin solution and re-suspending of the cells in RPMI-medium. After pooling the cell numbers per ml were accurately counted on a flow cytometer and thereafter dilutions of cell suspensions suitable to obtain the concentration of cells desired for transfer to the cryo-tubes were made for each cell type. […]

T98G glioblastoma cells = test: Colony formation (plating efficiency) after freezing and thawing, T98G; assay type: cell-based, human; conditions: Standard freezing with 5% DMSO (30 min -20° C., 45 min ~-80° C., liquid N2); T-98G
Description: as §4, §5, §6

[2] = tested on: adherent CHO cells (chinese hamster ovary cells K1); test: Colony formation (plating efficiency) after freezing and thawing, adherent CHO cells; assay type: cell-based
Description: The objective was to test the importance of the duration of ice-formation (=time to remove latent heat during ice formation) of seed stocks of adherent CHO cells (chinese hamster ovary cells K1 for viability after thawing. In addition to variation in ice-forming time two variables have been tested: • Cells frozen without DMSO or with 5% DMSO • Cells frozen within a mixed strong magnetic (0,2-0,3T)-pulsing electric (20V (220V/m)-20kHZ) field (hereinafter termed “Strong MAG/PEF”), or just outside the Field Box in a weak magnetic (0,005-0,008T)-pulsing electric (7-16V (75-185V/m)-20 kHz) (hereinafter “Weak MAG/PEF) field.
as §1, with “grown” for “grown to 70% confluence”, “serum.” for “serum (FBS).”
as §2
as §3, with “(200 g,” for “(200xg,”
After 10 days in liquid nitrogen samples were thawed and cells seeded for colony formation. There were 3 parallel flasks for each sample tested. The control was the traditional procedure used in the laboratory with 5% DMSO and with 30 min in −20° C., 45 min in ˜−80° C. and final storage in liquid N2.
The flasks were incubated for colony formation in a Steri-cult 200 incubator operated at 37° C. and with 5% CO2 in the atmosphere. Incubation continued for six days. For counting of macroscopic colonies cells were fixed in ethanol and stained with methylene blue.

## C[S+](C)[O-] [DMSO, Dimethyl sulfoxide]
cells; 1% DMSO
  difference in viability between 2 min and 3 min (optimal point) phase-transition time: 13%
  difference in viability between 3 min and 4 min phase-transition time: 39%
cells; 1% DMSO, phase-transition time 1.4 min, magnetic 0.2-0.3 T, pulsing electric field
  percentage viability after freezing and thawing: 8%
cells; 1% DMSO, phase-transition time 1.8 min, magnetic 0.2-0.3 T, pulsing electric field
  percentage viability after freezing and thawing: 26%
cells; 1% DMSO, phase-transition time 2 min, magnetic 0.2-0.3 T, pulsing electric field
  percentage viability after freezing and thawing: 36%
cells; 1% DMSO, phase-transition time 2.2 min, magnetic 0.2-0.3 T, pulsing electric field
  percentage viability after freezing and thawing: 35%
cells; 1% DMSO, phase-transition time 2.4 min, magnetic 0.2-0.3 T, pulsing electric field
  percentage viability after freezing and thawing: 41%
cells; 1% DMSO, phase-transition time 2.6 min, magnetic 0.2-0.3 T, pulsing electric field
  percentage viability after freezing and thawing: 45%
cells; 1% DMSO, phase-transition time 2.7 min, magnetic 0.2-0.3 T, pulsing electric field
  percentage viability after freezing and thawing: 47%
cells; 1% DMSO, phase-transition time 3 min, magnetic 0.2-0.3 T, pulsing electric field
  percentage viability after freezing and thawing: 47%
cells; 1% DMSO, phase-transition time 4 min, magnetic 0.2-0.3 T, pulsing electric field
  percentage viability after freezing and thawing: 4%
cells; 1% DMSO, phase-transition time 5.5 min, magnetic 0.2-0.3 T, pulsing electric field
  percentage viability after freezing and thawing: 4%
cells; 2% DMSO, phase-transition time 1.4 min, magnetic 0.2-0.3 T, pulsing electric field
  percentage viability after freezing and thawing: 36%
cells; 2% DMSO, phase-transition time 1.8 min, magnetic 0.2-0.3 T, pulsing electric field
  percentage viability after freezing and thawing: 57%
cells; 2% DMSO, phase-transition time 2 min, magnetic 0.2-0.3 T, pulsing electric field
  percentage viability after freezing and thawing: 53%
cells; 2% DMSO, phase-transition time 2.2 min, magnetic 0.2-0.3 T, pulsing electric field
  percentage viability after freezing and thawing: 61%
cells; 2% DMSO, phase-transition time 2.4 min, magnetic 0.2-0.3 T, pulsing electric field
  percentage viability after freezing and thawing: 52%
cells; 2% DMSO, phase-transition time 2.6 min, magnetic 0.2-0.3 T, pulsing electric field
  percentage viability after freezing and thawing: 63%
cells; 2% DMSO, phase-transition time 2.7 min, magnetic 0.2-0.3 T, pulsing electric field
  percentage viability after freezing and thawing: 65%
cells; 2% DMSO, phase-transition time 3 min, magnetic 0.2-0.3 T, pulsing electric field
  percentage viability after freezing and thawing: 66%
cells; 2% DMSO, phase-transition time 4 min, magnetic 0.2-0.3 T, pulsing electric field
  percentage viability after freezing and thawing: 27%
cells; 2% DMSO, phase-transition time 5.5 min, magnetic 0.2-0.3 T, pulsing electric field
  percentage viability after freezing and thawing: 17%
cells; 5% DMSO, phase-transition time 1.8 min, magnetic 0.2-0.3 T, pulsing electric field
  percentage viability after freezing and thawing: 76%
cells; 5% DMSO, phase-transition time 2.2 min, magnetic 0.2-0.3 T, pulsing electric field
  percentage viability after freezing and thawing: 74%
cells; 5% DMSO, phase-transition time 2.4 min, magnetic 0.2-0.3 T, pulsing electric field
  percentage viability after freezing and thawing: 90%
cells; 5% DMSO, phase-transition time 2.6 min, magnetic 0.2-0.3 T, pulsing electric field
  percentage viability after freezing and thawing: 98%
cells; 5% DMSO, phase-transition time 2.7 min, magnetic 0.2-0.3 T, pulsing electric field
  percentage viability after freezing and thawing: 97%
cells; 5% DMSO, phase-transition time 3 min, magnetic 0.2-0.3 T, pulsing electric field
  percentage viability after freezing and thawing: 97%
cells; 5% DMSO, phase-transition time 4 min, magnetic 0.2-0.3 T, pulsing electric field
  percentage viability after freezing and thawing: 99%
cells; 5% DMSO, phase-transition time 5.5 min, magnetic 0.2-0.3 T, pulsing electric field
  percentage viability after freezing and thawing: 99%
cells; 5% DMSO, phase-transition time 15 min, standard method, Nalgene Mr Frosty, 1 degree per minute
  percentage viability after freezing and thawing: 68%
[1]
  Plating efficiency—PE (%): 80-90%
T98G glioblastoma cells
  Plating efficiency—PE (%): 57%
[2]; 5% DMSO, ice formation time 1 min 55 sec, Strong MAG/PEF
  PE: plating efficiency (%): 88%
[2]; 5% DMSO, ice formation time 1 min 55 sec, Weak MAG/PEF
  PE: plating efficiency (%): 98%
[2]; 5% DMSO, ice formation time 4 min 8 sec, Weak MAG/PEF
  PE: plating efficiency (%): 95%
[2]; 5% DMSO, ice formation time 5 min 7 sec, Strong MAG/PEF
  PE: plating efficiency (%): 72%
[2]; 5% DMSO, ice formation time 5 min 7 sec, Weak MAG/PEF
  PE: plating efficiency (%): 64%
[2]; 4 min
  PE: plating efficiency (%): 107 (artefacted) %
